From US6348614B1 (priority 1996, dated 2002)

system: P.infestans (A2 mating type, resistant to metalaxyl); type: in vivo, Phytophthora infestans; settings: Potato, 500 ppm, 6 days after inoculation

Row | Compound | Control efficacy (%) 6d [%]
1 | CCCCCCCOC(=O)CC(C)NC(=O)c1ccc(OC)cc1 (stereo not shown) [compound 12, D,L N-4-methoxybenzoyl-3-aminobutyric acid heptyl ester] | 89
2 | CCCCCCCOC(=O)CC(C)NC(=O)c1cc(C)cc(C)c1 (stereo not shown) [compound 13, D,L N-3,5-dimethylbezoyl-3-aminobutyric acid heptyl ester] | 84
3 | CCCCCCCOC(=O)CC(C)NC(=O)c1c(F)cccc1F (stereo not shown) [compound 14, D,L N-2,6-difluorobenzoyl-3-aminobutyric acid heptyl ester] | 79
4 | CCCCCCCOC(=O)CC(C)NC(=O)c1ccc(C(C)(C)C)cc1 (stereo not shown) [compound 15, D,L N-4-tertbutylbenzoyl-3-aminobutyric acid heptyl ester] | 79
5 | CCCCC(C)OC(=O)CC(C)NS(=O)(=O)c1ccc(C)cc1 (stereo not shown) [compound 16, D,L N-4-methylbenzenesulfonyl-3-aminobutyric acid i-methylpentyl ester] | 79
6 | CC(CC(=O)OCCCc1ccccc1)NS(=O)(=O)c1ccccc1 (stereo not shown) [compound 17, D,L N-benzenesulfonyl-3-aminobutyric acid 3-phenylpropyl ester] | 76
7 | CCCCC(C)OC(=O)CC(C)NC(=O)c1ccc(Cl)cc1 (stereo not shown) [compound 18, D,L N-4-cholrobenzoyl-3-aminobutyric acid 1-methylpentyl ester] | 76
8 | CC(CC(=O)OCCC(Cl)(Cl)Cl)NS(=O)(=O)c1ccccc1 (stereo not shown) [compound 19, D,L N-benzenesulfonyl-3-aminobutyric acid 2-(trichloromethyl)ethyl ester] | 75
9 | CCC(C)OC(=O)CC(C)NS(=O)(=O)c1ccc(C)cc1 (stereo not shown) [compound 20, D,L N-4-methylbenzenesulfonyl-3-aminobutyric 1-methylpropyll ester] | 75
10 | CCCC(C)OC(=O)CC(C)NC(=O)c1ccc(C)c(C)c1 (stereo not shown) [compound 21, D,L N-3,4-dimethylbezoyl-3-aminobutyric acid 1-methylbutyl ester] | 73
11 | CCCCCCCOC(=O)CC(C)NC(=O)c1cccc(C)c1 (stereo not shown) [compound 22, D,L N-3-methylbezoyl-3-aminobutyric acid heptyl ester] | 70
12 | CCCCCCCCOC(=O)CC(C)NC(=O)c1ccc(-c2cccs2)cc1 (stereo not shown) [compound 48, D,L N-4-2-thiophenebenzoyl-3-aminobutyric acid octyl ester] | 82
13 | CCCCC(C)OC(=O)CC(C)NC(=O)c1ccc(-c2cccs2)cc1 (stereo not shown) [compound 49, D,L N-4-2-thiophenebenzoyl-3-aminobutyric acid 1-methylpentyl ester] | 75
14 | CCCCC(C)OC(=O)CC(C)NS(=O)(=O)c1ccc(Cl)cc1 (stereo not shown) [compound 50, D,L N-4-chlorobenzensulfonyl-3-aminobutyric acid 1-methylpentyl ester] | 77
15 | CC(CC(=O)OCCCc1ccccc1)NS(=O)(=O)c1ccccc1 (stereo not shown) [compound 51, D,L N-benzensulphonyl-3-aminobutyric acid 3-phenylpropyl ester] | 76
16 | CCCCC(C)OC(=O)CC(C)NC(=O)c1ccccc1NC (stereo not shown) [compound 52, D,L N-2-methylaminobenzoyl-3-aminobutyric acid 1-methylpentyl ester] | 74
